The text below walks through data of patent US11492348B2, “Tri-substituted aryl and heteroaryl derivatives as modulators of PI3-kinase and autophagy pathways” (Neuropore Therapies, Inc., priority 2018, dated 2022).

As usually defined, the IC50 is the concentration needed to halve the response being measured.

This experiment concerns the target PI3Kα (Homo sapiens (Human), UniProt P42336). The experiment in a line: Inhibition of PI3Kα (ADP-Glo kinase activity assay, ATP to ADP conversion). It counts as biochemical. To be noted: 25 μM PIP2:PS, 60 μM ATP, 30 min reaction, luminescence. On the procedure: Quantification of ATP to ADP conversion as a measure of PI3Kα activity. Active PI3Kα (Life Technologies), in the presence or absence of PI3Kα inhibitor, was reacted with PIP2:PS (Life Technologies), a substrate specifically optimized for use with Class I PI3 kinases, and ultrapure ATP (Promega). The conversion of ATP to ADP by PI3Kα was measured as luminescence signal via Promega ADP-Glo kinase activity assay. Assay was validated using published PI3Kα inhibitors LY294002, PI-103, BYL719, GDC0198 and also DMSO vehicle control.
Compounds were prepared at 100× final concentration as a 12-point, 1:3 serial-dilution in DMSO series, with DMSO control as 12th point. Compound was then diluted in (25 mM HEPES pH 7.5, 1 mM EGTA, 0.3% CHAPS) prior to addition to PI3Kα. Active PI3Kα diluted to 0.24 ng/μL (1.1 nM) in (50 mM HEPES pH 7.5, 6 mM MgCl2, 1 mM EGTA, 200 mM NaCl, 0.03% CHAPS, 8 mM DTT) was incubated with compound for 0 hr and 3 hr prior to the start of the reaction. 25 μM PIP2:PS and 60 μM ATP were diluted from stock in (25 mM HEPES pH 7.5, 1 mM EGTA, 0.3% CHAPS) and added to initiate the PI3Kα reaction. Reaction time was 30 minutes. ATP to ADP conversion was measured in Luminescence Counts on DTX880 Plate Reader (Beckman Coulter). Compound IC50s were reported using GraphPad Prism software. Analytical method was non-linear regression, 4-parameter curve fit with bottom fit to validated PI3Kα inhibitor reference controls and no top fit (floating top).

PI3Kα, sequence (P42336 whole entry): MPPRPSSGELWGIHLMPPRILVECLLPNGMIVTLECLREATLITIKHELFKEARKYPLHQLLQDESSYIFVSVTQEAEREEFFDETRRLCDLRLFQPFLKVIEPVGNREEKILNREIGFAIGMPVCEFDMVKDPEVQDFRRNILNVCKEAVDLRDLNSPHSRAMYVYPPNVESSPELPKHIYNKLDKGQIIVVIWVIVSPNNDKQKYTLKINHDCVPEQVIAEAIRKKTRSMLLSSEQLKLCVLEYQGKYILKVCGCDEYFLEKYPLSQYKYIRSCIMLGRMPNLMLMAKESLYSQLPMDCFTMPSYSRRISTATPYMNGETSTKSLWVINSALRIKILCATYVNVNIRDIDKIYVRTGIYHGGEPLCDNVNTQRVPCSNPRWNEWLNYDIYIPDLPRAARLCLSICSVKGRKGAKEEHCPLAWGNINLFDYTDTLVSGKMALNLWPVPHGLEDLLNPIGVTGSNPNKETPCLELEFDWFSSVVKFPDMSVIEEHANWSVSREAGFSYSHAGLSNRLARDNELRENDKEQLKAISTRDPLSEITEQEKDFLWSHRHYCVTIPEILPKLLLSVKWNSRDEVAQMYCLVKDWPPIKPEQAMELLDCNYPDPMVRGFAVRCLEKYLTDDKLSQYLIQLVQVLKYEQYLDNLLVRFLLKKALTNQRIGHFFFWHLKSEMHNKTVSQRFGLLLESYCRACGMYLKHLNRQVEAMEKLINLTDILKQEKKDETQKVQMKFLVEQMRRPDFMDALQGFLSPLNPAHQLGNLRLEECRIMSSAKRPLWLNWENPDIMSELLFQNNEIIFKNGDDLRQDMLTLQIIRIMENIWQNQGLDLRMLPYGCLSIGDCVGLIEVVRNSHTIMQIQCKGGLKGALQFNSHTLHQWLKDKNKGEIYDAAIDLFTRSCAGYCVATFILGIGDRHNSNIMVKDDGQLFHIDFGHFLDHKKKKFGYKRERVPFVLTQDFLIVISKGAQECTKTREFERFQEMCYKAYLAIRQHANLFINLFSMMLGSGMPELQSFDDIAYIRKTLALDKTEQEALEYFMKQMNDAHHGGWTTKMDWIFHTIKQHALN
PI3Kα, sequence (P27986 whole entry partner): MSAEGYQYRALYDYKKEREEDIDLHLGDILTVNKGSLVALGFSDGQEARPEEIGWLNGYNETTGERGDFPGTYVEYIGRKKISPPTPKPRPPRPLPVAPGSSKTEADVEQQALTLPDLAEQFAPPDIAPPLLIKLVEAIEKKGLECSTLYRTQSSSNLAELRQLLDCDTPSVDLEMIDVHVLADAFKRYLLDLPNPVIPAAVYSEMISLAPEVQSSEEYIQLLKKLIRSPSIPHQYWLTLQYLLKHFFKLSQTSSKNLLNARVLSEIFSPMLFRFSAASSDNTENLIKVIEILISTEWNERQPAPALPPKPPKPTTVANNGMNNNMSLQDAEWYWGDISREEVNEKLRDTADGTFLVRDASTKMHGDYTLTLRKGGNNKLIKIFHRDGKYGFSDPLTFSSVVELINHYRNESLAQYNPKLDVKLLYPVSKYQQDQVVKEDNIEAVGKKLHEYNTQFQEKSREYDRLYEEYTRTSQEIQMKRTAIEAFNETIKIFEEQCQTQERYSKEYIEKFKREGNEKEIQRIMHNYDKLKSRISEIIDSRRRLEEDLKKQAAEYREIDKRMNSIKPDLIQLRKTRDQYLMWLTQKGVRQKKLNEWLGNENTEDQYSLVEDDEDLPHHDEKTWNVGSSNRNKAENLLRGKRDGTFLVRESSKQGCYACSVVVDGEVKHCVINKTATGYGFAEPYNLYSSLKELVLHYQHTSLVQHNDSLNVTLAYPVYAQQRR

`Nc1cc(C(F)(F)F)c(-c2cc(S(=O)(=O)c3ccccc3)cc(N3CCOCC3)n2)cn1` [Compound 144, 6-morpholino-4-(phenylsulfonyl)-4′-(trifluoromethyl)-[2,3′-bipyridin]-6′-amine]: the “PI3Ka IC50” value is 390 nM.
With `O=S(=O)(Cc1ccc(F)cc1)c1cc(-c2ccc3c(c2)OCCN3)cc(N2CCOCC2)c1` [Compound 45, 7-(3-((4-fluorobenzyl)sulfonyl)-5-morpholinophenyl)-3,4-dihydro-2H-benzo[b][1,4]oxazine], the “PI3Ka IC50” value is 5900 nM.
Same read-out and setting: the result for `Cc1cn2cc(-c3cc(N4CCOCC4)cc(S(=O)(=O)Cc4ccccc4)c3)cnc2n1` [Compound 34, 4-(3-(benzylsulfonyl)-5-(2-methylimidazo[1,2-a]pyrimidin-6-yl)phenyl)morpholine] reads 13000 nM; that for `CC(C)N1CC(S(=O)(=O)c2cc(-c3cnc(N)nc3)cc(N3CCOCC3)c2)C1` [Compound 65, 5-(3-((1-isopropylazetidin-3-yl)sulfonyl)-5-morpholinophenyl)pyrimidin-2-amine], 870 nM.
Turning to `CC(C)(C)C(=O)N1CC(S(=O)(=O)c2cc(-c3cnc(N)nc3)cc(N3CCOCC3)c2)C1` [Compound 86, 1-(3-((3-(2-aminopyrimidin-5-yl)-5-morpholinophenyl)sulfonyl)azetidin-1-yl)-2,2-dimethylpropan-1-one], the “PI3Ka IC50” value amounted to 580 nM.
On to `Nc1ncc(-c2cc(N3CCOCC3)cc(S(=O)(=O)c3ccc(C(F)(F)F)cc3)c2)cn1` [Compound 14, 5-(3-morpholino-5-((4-(trifluoromethyl)phenyl)sulfonyl)phenyl) pyrimidin-2-amine], for which the “PI3Ka IC50” value was 7300 nM.
Turning to `O=C1COc2cc(-c3cc(N4CCOCC4)cc(S(=O)(=O)Cc4ccc(F)cc4)c3)ccc2N1` [Compound 42, 7-(3-((4-fluorobenzyl)sulfonyl)-5-morpholinophenyl)-2H-benzo[b][1,4]oxazin-3(4H)-one], the “PI3Ka IC50” value was found to be 4700 nM.
Consider `Nc1ncc(-c2cc(N3CCOCC3)cc(S(=O)(=O)CC3CCC(F)(F)CC3)c2)cn1` [Compound 64, 5-(3-(((4,4-difluorocyclohexyl)methyl)sulfonyl)-5-C21H26F2N4O3Smorpholinophenyl) pyrimidin-2-amine], for which the “PI3Ka IC50” value was determined as 1100 nM.
For the compound `Nc1ncc(-c2cc(S(=O)(=O)C3CCOc4ccccc43)cc(N3CCOCC3)n2)cn1` (single isomer, unassigned; (-)) [(−) 143, 5-(4-(chroman-4-ylsulfonyl)-6-morpholinopyridin-2-yl)pyrimidin-2-amine], where the note is “read-out: PI3Ka IC50”, the 50% inhibitory concentration (IC50) is 1 nM.
On to `Cc1cc(N)nnc1-c1cc(N2CCOCC2)cc(S(=O)(=O)Cc2ccc(F)cc2F)c1` [Compound 99, 6-(3-((2,4-difluorobenzyl)sulfonyl)-5-morpholinophenyl)-5-methylpyridazin-3-amine], for which the “PI3Ka IC50” value stood at 4300 nM.
Still for that read-out and setting: the result for `Nc1cnc(-c2cc(N3CCOCC3)cc(S(=O)(=O)C3CCOC3)c2)cn1` (centres unmarked) [Compound 74, 5-(3-morpholino-5-((tetrahydrofuran-3-yl)sulfonyl)phenyl)pyrazin-2-amine] reads 1000 nM.
Same read-out and setting: the result for `CC(C)N1CCC(S(=O)(=O)c2cc(-c3cnc(N)nc3)cc(N3CCOCC3)c2)CC1` [Compound 90, 5-(3-((1-isopropylpiperidin-4-yl)sulfonyl)-5-morpholinophenyl)pyrimidin-2-amine] reads 7220 nM; that for `Nc1ncc(-c2cc(S(=O)(=O)C3CCOc4ccccc43)cc(N3CCOCC3)n2)cn1` (racemic) [Compound 143, 5-(4-(chroman-4-ylsulfonyl)-6-morpholinopyridin-2-yl)pyrimidin-2-amine], 1.7 nM.
As to `O=S(=O)(Cc1ccccc1)c1cc(-c2cnc(NC3CC3)nc2)cc(N2CCOCC2)c1` [Compound 104, 5-(3-(benzylsulfonyl)-5-morpholinophenyl)-N-cyclopropylpyrimidin-2-amine], the “PI3Ka IC50” value worked out at 1300 nM.
